Reference: article PMC11594329, “Development of LAT1-Selective Nuclear Medicine Therapeutics Using Astatine-211” (International Journal of Molecular Sciences, 2024)

Tests used:
Type in all cases: in vivo
[1] = Tissue distribution in ICR mice (normal animals)
Description: (§1) ICR mice (male, 5 weeks old) were purchased from Japan SLC (Shizuoka, Japan) and acclimated for one week prior to use. The doses in the distribution experiments were as follows: ^211At-AAMT-O-Me-L (0.407 ± 0.005 MBq/mouse, 31.64 ± 0.76 g, n = 6), ^211At-AAMT-O-Me-D (0.351 ± 0.004 MBq/mouse, 31.44 ± 0.94 g, n = 6), ^211At-AAMT-O-Et-L (0.685 ± 0.010 MBq/mouse, 24.14 ± 3.31 g, n = 6), ^211At-AAMT-O-Pr-L (1.09 ± 0.06 MBq/mouse, 26.33 ± 0.39 g, n = 6)

[2] = Urinary and fecal excretion in ICR mice
Method: (§2) Urinary excretion levels were also examined (Supplementary Table S1). Comparing the D-isomer and L isomer of ^211At-AAMT-O-Me from ICR mice, the D-isomer; 24.84 ± 13.03% ID, L-isomer; 33.69 ± 1.26% ID at 1 h after injection. D-isomer; 71.36 ± 4.67% ID, L-isomer; 23.99 ± 2.40% ID at 3 h after injection. From PANC-1 tumor bearing mice, D-isomer; 35.24 ± 8.70% ID, L-isomer; 20.40 ± 0.76% ID at 1 h after injection. D-isomer; 47.38 ± 3.19% ID, L-isomer; 3.23 ± 0.67% ID at 3 h after injection. In tumor-bearing models, the amount of excretion was smaller than that in normal mice. We have already reported that, in the presence of target cancer tissue for administered drugs, retention in the cancer tissue results in reduced excretion compared with normal animals. […] The same was also observed for feces, but very little was excreted in the feces. The results were as follows: from ICR mice, D-isomer; 0.06 ± 0.03% ID, L-isomer; 0.004 ± 0.003% ID at 1 h after injection. D-isomer; 0.02 ± 0.01% ID, L-isomer; 0.02 ± 0.01% ID at 3 h after injection. From PANC-1 tumor bearing mice, D-isomer; 0.25 ± 0.12% ID, L-isomer; 0.002 ± 0.001% ID at 1 h after injection. D-isomer; 0.75 ± 0.46% ID; L-isomer; 0.07 ± 0.03% ID at 3 h after injection.
as §1

[3] = Urinary and fecal excretion in PANC-1 tumor bearing mice
Method: as §2
BALB/c nu/nu mice (male, 5 weeks old) were purchased from Japan SLC (Shizuoka, Japan) and subcutaneously transplanted at a density of 1 × 10^7 cells/mouse. PANC-1 cells that reached the logarithmic growth phase were transplanted subcutaneously by mixing a 1 × 10^8 cells/mL cell suspension with an equivalent volume of Matrigel (Corning, Corning, NY, USA) to obtain 1 × 10^7 cells per mouse. Experiments were performed after the size of the transplanted tumor had exceeded 50 mm^3. The doses in the distribution experiments were as follows: ^211At-AAMT-OH-L (0.501 ± 0.011 MBq/mouse, 19.91 ± 0.59 g, n = 3) and ^211At-AAMT-O-Me-L (0.384 ± 0.003 MBq/mouse, 19.18 ± 0.38 g, n = 6 for Table 3), ^211At-AAMT-O-Me-L (158.10 ± 2.94 kBq/mouse, 19.27 ± 0.64 g, n = 6) and ^211At-AAMT-O-Me-D (135.08 ± 2.35 kBq/mouse, 18.64 ± 0.97 g, n = 6), ^211At-AAMT-O-Et-L (0.682 ± 0.011 MBq/mouse, 20.25 ± 1.41 g, n = 6), ^211At-AAMT-O-Pr-L (0.927 ± 0.020 MBq/mouse, 21.74 ± 0.37 g, n = 6).

COc1ccc(C[C@@](C)(N)C(=O)O)cc1[211At] [^211At-AAMT-O-Me-D]
Tissue distribution, Bladder ([1]; 1 h after injection): 10.62 ± 8.22 %ID/g
Tissue distribution, Blood ([1]; 1 h after injection): 1.90 ± 0.57 %ID/g
Tissue distribution, Bone ([1]; 1 h after injection): 0.93 ± 0.35 %ID/g
Tissue distribution, Brain ([1]; 1 h after injection): 0.15 ± 0.01 %ID/g
Tissue distribution, Cecum ([1]; 1 h after injection): 0.47 ± 0.19 %ID/g
Tissue distribution, Colon ([1]; 1 h after injection): 2.54 ± 1.55 %ID/g
Tissue distribution, Heart ([1]; 1 h after injection): 3.20 ± 1.26 %ID/g
Tissue distribution, Kidney ([1]; 1 h after injection): 1.48 ± 0.39 %ID/g
Tissue distribution, Liver ([1]; 1 h after injection): 0.58 ± 0.11 %ID/g
Tissue distribution, Lung ([1]; 1 h after injection): 2.84 ± 1.11 %ID/g
Tissue distribution, Pancreas ([1]; 1 h after injection): 2.38 ± 1.36 %ID/g
Tissue distribution, Salivary glands ([1]; 1 h after injection): 4.67 ± 1.03 %ID/g
Tissue distribution, Small intestine ([1]; 1 h after injection): 2.66 ± 1.23 %ID/g
Tissue distribution, Spleen ([1]; 1 h after injection): 2.92 ± 1.49 %ID/g
Tissue distribution, Stomach ([1]; 1 h after injection): 6.34 ± 2.74 %ID/g
Tissue distribution, Testis ([1]; 1 h after injection): 1.84 ± 0.23 %ID/g
Tissue distribution, Thymus ([1]; 1 h after injection): 1.89 ± 0.90 %ID/g
Tissue distribution, Thyroid ([1]; 1 h after injection): 8.06 ± 3.56 %ID/g
Tissue distribution, Bladder ([1]; 3 h after injection): 0.19 ± 0.11 %ID/g
Tissue distribution, Blood ([1]; 3 h after injection): 0.38 ± 0.16 %ID/g
Tissue distribution, Bone ([1]; 3 h after injection): 0.28 ± 0.11 %ID/g
Tissue distribution, Brain ([1]; 3 h after injection): 0.04 ± 0.00 %ID/g
Tissue distribution, Cecum ([1]; 3 h after injection): 0.50 ± 0.23 %ID/g
Tissue distribution, Colon ([1]; 3 h after injection): 0.95 ± 0.59 %ID/g
Tissue distribution, Heart ([1]; 3 h after injection): 0.43 ± 0.20 %ID/g
Tissue distribution, Kidney ([1]; 3 h after injection): 0.73 ± 0.15 %ID/g
Tissue distribution, Liver ([1]; 3 h after injection): 1.34 ± 0.47 %ID/g
Tissue distribution, Lung ([1]; 3 h after injection): 0.69 ± 0.28 %ID/g
Tissue distribution, Pancreas ([1]; 3 h after injection): 0.42 ± 0.28 %ID/g
Tissue distribution, Salivary glands ([1]; 3 h after injection): 0.96 ± 0.16 %ID/g
Tissue distribution, Small intestine ([1]; 3 h after injection): 5.33 ± 2.18 %ID/g
Tissue distribution, Spleen ([1]; 3 h after injection): 0.42 ± 0.14 %ID/g
Tissue distribution, Stomach ([1]; 3 h after injection): 8.08 ± 3.50 %ID/g
Tissue distribution, Testis ([1]; 3 h after injection): 0.31 ± 0.02 %ID/g
Tissue distribution, Thymus ([1]; 3 h after injection): 0.18 ± 0.06 %ID/g
Tissue distribution, Thyroid ([1]; 3 h after injection): 0.42 ± 0.20 %ID/g
Excretion in feces ([2]; 1 h after injection): 0.06 ± 0.03 % ID
Urinary excretion ([2]; 1 h after injection): 24.84 ± 13.03 % ID
Excretion in feces ([2]; 3 h after injection): 0.02 ± 0.01 % ID
Urinary excretion ([2]; 3 h after injection): 71.36 ± 4.67 % ID
Urinary content ([2]; after 3 h): exceeded 70%
Excretion in feces ([3]; 1 h after injection): 0.25 ± 0.12 % ID
Urinary excretion ([3]; 1 h after injection): 35.24 ± 8.70 % ID
Excretion in feces ([3]; 3 h after injection): 0.75 ± 0.46 % ID
Urinary excretion ([3]; 3 h after injection): 47.38 ± 3.19 % ID

COc1ccc(C[C@](C)(N)C(=O)O)cc1[211At] [^211At-AAMT-O-Me-L, (S)-2-amino-3-(3-(astato-^211At)-4-methoxyphenyl)-2-methylpropanic acid]
Tissue distribution, Bladder ([1]; 1 h after injection): 7.10 ± 1.15 %ID/g
Tissue distribution, Blood ([1]; 1 h after injection): 1.57 ± 0.10 %ID/g
Tissue distribution, Bone ([1]; 1 h after injection): 1.33 ± 0.16 %ID/g
Tissue distribution, Brain ([1]; 1 h after injection): 0.32 ± 0.02 %ID/g
Tissue distribution, Cecum ([1]; 1 h after injection): 0.85 ± 0.04 %ID/g
Tissue distribution, Colon ([1]; 1 h after injection): 0.93 ± 0.13 %ID/g
Tissue distribution, Heart ([1]; 1 h after injection): 2.01 ± 0.15 %ID/g
Tissue distribution, Kidney ([1]; 1 h after injection): 2.47 ± 0.24 %ID/g
Tissue distribution, Liver ([1]; 1 h after injection): 1.11 ± 0.10 %ID/g
Tissue distribution, Lung ([1]; 1 h after injection): 6.42 ± 1.52 %ID/g
Tissue distribution, Pancreas ([1]; 1 h after injection): 1.52 ± 0.17 %ID/g
Tissue distribution, Salivary glands ([1]; 1 h after injection): 7.16 ± 1.54 %ID/g
Tissue distribution, Small intestine ([1]; 1 h after injection): 1.82 ± 0.08 %ID/g
Tissue distribution, Spleen ([1]; 1 h after injection): 5.01 ± 1.42 %ID/g
Tissue distribution, Stomach ([1]; 1 h after injection): 13.65 ± 2.40 %ID/g
Tissue distribution, Testis ([1]; 1 h after injection): 2.31 ± 0.04 %ID/g
Tissue distribution, Thymus ([1]; 1 h after injection): 2.03 ± 0.50 %ID/g
Tissue distribution, Thyroid ([1]; 1 h after injection): 13.12 ± 1.72 %ID/g
Tissue distribution, Bladder ([1]; 3 h after injection): 0.10 ± 0.01 %ID/g
Tissue distribution, Blood ([1]; 3 h after injection): 1.17 ± 0.24 %ID/g
Tissue distribution, Bone ([1]; 3 h after injection): 0.53 ± 1.31 %ID/g
Tissue distribution, Brain ([1]; 3 h after injection): 0.10 ± 0.02 %ID/g
Tissue distribution, Cecum ([1]; 3 h after injection): 0.95 ± 0.11 %ID/g
Tissue distribution, Colon ([1]; 3 h after injection): 0.80 ± 0.12 %ID/g
Tissue distribution, Heart ([1]; 3 h after injection): 0.34 ± 0.02 %ID/g
Tissue distribution, Kidney ([1]; 3 h after injection): 1.11 ± 0.15 %ID/g
Tissue distribution, Liver ([1]; 3 h after injection): 2.57 ± 0.17 %ID/g
Tissue distribution, Lung ([1]; 3 h after injection): 1.34 ± 0.32 %ID/g
Tissue distribution, Pancreas ([1]; 3 h after injection): 0.19 ± 0.04 %ID/g
Tissue distribution, Salivary glands ([1]; 3 h after injection): 1.77 ± 0.19 %ID/g
Tissue distribution, Small intestine ([1]; 3 h after injection): 3.91 ± 0.20 %ID/g
Tissue distribution, Spleen ([1]; 3 h after injection): 0.80 ± 0.19 %ID/g
Tissue distribution, Stomach ([1]; 3 h after injection): 16.96 ± 1.89 %ID/g
Tissue distribution, Testis ([1]; 3 h after injection): 0.52 ± 0.06 %ID/g
Tissue distribution, Thymus ([1]; 3 h after injection): 0.14 ± 0.03 %ID/g
Tissue distribution, Thyroid ([1]; 3 h after injection, listed as L-Isomer): 0.65 ± 0.16 %ID/g
Excretion in feces ([2]; 1 h after injection): 0.004 ± 0.003 % ID
Urinary excretion ([2]; 1 h after injection): 33.69 ± 1.26 % ID
Excretion in feces ([2]; 3 h after injection): 0.02 ± 0.01 % ID
Urinary excretion ([2]; 3 h after injection): 23.99 ± 2.40 % ID
Excretion in feces ([3]; 1 h after injection): 0.002 ± 0.001 % ID
Urinary excretion ([3]; 1 h after injection): 20.40 ± 0.76 % ID
Excretion in feces ([3]; 3 h after injection): 0.07 ± 0.03 % ID
Urinary excretion ([3]; 3 h after injection): 3.23 ± 0.67 % ID
